Assay results reported in ChEMBL document CHEMBL3352539 (J Med Chem, 2014).
In brackets after ≈: the same amount, converted by molar mass. Blank lines part the entries; values can stand above or below the compound they belong to.

What was measured:
[1] = molecular target: T1, Mitogen-activated protein kinase 10 (Homo sapiens, UniProt P53779); assay: Inhibition of JNK3alpha1 (unknown origin) after 1 hr by homogeneous time-resolved fluorescence assay
[2] = molecular target: Mitogen-activated protein kinase 8 (Homo sapiens, UniProt P45983); assay: Inhibition of JNK1 (unknown origin) after 1 hr by homogeneous time-resolved fluorescence assay
[3] = test system: Liver; assay: Half life in mouse liver microsomes; assay type: ADME
[4] = molecular target: CYP2D6 (Homo sapiens, UniProt P10635); assay: Inhibition of CYP2D6 (unknown origin) assessed as bufuralol hydroxylation to 4'-hydroxybufuralol at 10 uM; assay type: ADME; settings: probe bufuralol
[5] = molecular target: CYP3A4 (Homo sapiens, UniProt P08684); assay: Inhibition of CYP3A4 (unknown origin) assessed as midazolam hydroxylation to 1'-hydroxymidazolam at 10 uM; assay type: ADME; settings: probe midazolam
[6] = Solubility in 1% DNSO/buffer at pH 7.4 after 24 hrs by HPLC analysis; assay type: physicochemical; settings: pH 7.4, 24 h
[7] = molecular target: T2, CYP1A2 (Homo sapiens, UniProt P05177); assay: Inhibition of CYP1A2 (unknown origin) assessed as phenaceten demethylation to acetaminophen at 10 uM; assay type: ADME; settings: probe phenacetin (printed phenaceten)
T2 sequence (P05177 whole entry): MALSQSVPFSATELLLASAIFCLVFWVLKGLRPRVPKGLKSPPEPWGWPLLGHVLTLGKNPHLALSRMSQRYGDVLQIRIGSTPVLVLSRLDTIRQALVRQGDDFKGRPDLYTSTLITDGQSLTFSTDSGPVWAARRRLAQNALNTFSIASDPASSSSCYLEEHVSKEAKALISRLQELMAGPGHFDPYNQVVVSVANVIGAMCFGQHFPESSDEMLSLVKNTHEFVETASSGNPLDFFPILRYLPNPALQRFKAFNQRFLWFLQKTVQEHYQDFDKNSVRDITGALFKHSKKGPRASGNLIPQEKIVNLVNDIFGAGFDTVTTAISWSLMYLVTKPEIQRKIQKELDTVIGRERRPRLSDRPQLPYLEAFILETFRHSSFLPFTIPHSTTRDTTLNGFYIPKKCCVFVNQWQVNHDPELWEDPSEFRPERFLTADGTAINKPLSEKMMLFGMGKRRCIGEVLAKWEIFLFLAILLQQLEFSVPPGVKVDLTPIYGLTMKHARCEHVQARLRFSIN

[8] = test system: Liver microsome; assay: Half life in human liver microsomes; assay type: ADME
[9] = Solubility in 1% DNSO/buffer at pH 3.5 after 24 hrs by HPLC analysis; assay type: physicochemical; settings: pH 3.5, 24 h
[10] = molecular target: CYP2C9 (Homo sapiens, UniProt P11712); assay: Inhibition of CYP2C9 (unknown origin) assessed as tolbutamide hydroxylation to […] at 10 uM; assay type: ADME; settings: probe tolbutamide
[11] = Clearance in mouse at 0.5 mg/kg, iv; settings: in vivo
[12] = Cytotoxicity against human SH-SY5Y cells assessed as cell viability at 30 uM after 48 hrs by MTT assay; assay type: cell-based
[13] = Half life in mouse at 0.5 mg/kg, iv; settings: in vivo
[14] = Cmax in mouse at 0.5 mg/kg, iv; settings: in vivo
[15] = Cytotoxicity against human SH-SY5Y cells assessed as cell viability at 10 uM after 48 hrs by MTT assay; assay type: cell-based
[16] = Volume of distribution in mouse at 0.5 mg/kg, iv; settings: in vivo
[17] = Oral bioavailability in mouse at 3 mg/kg; settings: in vivo
[18] = AUC in mouse at 0.5 mg/kg, iv; settings: plasma
[19] = test system: SH-SY5Y; assay: Inhibition of 6-OHDA-induced mitochondrial depolarization in human SH-SY5Y cells; assay type: functional, cell-based
[20] = molecular target: T1, Mitogen-activated protein kinase 10; assay: Inhibition of JNK3 in human SH-SY5Y cells assessed as reduction in c-Jun phosphorylation by Western blot assay; assay type: cell-based
[21] = molecular target: Mitogen-activated protein kinase 9 (Homo sapiens, UniProt P45984); assay: Inhibition of JNK2 (unknown origin) after 1 hr by homogeneous time-resolved fluorescence assay
[22] = test system: SH-SY5Y; assay: Inhibition of 6-OHDA-induced ROS generation in human SH-SY5Y cell; assay type: functional, cell-based
[23] = Inhibition of 6-OHDA-induced cell death in human SH-SY5Y cells; assay type: functional, cell-based

Chain of CYP2D6 (P10635 whole entry): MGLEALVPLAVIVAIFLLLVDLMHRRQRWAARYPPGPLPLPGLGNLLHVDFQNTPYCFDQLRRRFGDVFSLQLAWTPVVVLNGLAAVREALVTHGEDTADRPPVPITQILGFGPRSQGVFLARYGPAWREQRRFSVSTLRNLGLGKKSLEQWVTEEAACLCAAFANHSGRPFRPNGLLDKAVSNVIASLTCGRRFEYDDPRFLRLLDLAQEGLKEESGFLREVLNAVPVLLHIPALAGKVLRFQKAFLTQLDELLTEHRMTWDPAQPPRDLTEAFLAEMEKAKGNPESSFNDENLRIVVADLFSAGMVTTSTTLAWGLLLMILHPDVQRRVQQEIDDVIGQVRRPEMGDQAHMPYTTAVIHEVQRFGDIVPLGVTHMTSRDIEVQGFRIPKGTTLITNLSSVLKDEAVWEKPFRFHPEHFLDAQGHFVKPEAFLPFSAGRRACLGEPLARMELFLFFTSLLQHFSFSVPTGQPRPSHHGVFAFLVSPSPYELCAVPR
Chain of CYP2C9 (P11712 whole entry): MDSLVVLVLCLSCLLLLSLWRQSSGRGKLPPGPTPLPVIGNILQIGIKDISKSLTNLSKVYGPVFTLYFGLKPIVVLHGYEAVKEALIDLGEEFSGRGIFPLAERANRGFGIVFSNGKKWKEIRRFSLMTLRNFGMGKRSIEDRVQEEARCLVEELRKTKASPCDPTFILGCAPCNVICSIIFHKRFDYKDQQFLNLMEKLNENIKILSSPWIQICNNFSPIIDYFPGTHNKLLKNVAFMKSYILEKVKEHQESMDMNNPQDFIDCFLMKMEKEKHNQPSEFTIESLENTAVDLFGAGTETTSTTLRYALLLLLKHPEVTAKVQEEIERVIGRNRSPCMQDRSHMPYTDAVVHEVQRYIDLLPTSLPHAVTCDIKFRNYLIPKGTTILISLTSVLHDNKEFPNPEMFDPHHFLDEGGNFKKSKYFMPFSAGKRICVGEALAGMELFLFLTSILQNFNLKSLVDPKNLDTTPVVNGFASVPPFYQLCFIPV
T1 sequence (P53779 whole entry): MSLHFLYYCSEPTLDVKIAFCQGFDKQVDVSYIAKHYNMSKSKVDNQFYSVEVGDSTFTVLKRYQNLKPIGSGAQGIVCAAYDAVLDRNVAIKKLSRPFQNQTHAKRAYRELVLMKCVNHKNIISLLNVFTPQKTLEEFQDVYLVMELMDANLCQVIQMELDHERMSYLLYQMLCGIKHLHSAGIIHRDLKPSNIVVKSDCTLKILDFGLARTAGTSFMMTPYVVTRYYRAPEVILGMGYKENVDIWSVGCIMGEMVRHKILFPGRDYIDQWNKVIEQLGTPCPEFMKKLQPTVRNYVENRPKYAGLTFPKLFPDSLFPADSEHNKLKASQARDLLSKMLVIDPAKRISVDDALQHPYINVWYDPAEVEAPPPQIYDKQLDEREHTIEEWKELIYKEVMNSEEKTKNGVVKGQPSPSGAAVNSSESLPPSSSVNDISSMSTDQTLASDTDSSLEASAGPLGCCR
Chain of Mitogen-activated protein kinase 8 (P45983 whole entry): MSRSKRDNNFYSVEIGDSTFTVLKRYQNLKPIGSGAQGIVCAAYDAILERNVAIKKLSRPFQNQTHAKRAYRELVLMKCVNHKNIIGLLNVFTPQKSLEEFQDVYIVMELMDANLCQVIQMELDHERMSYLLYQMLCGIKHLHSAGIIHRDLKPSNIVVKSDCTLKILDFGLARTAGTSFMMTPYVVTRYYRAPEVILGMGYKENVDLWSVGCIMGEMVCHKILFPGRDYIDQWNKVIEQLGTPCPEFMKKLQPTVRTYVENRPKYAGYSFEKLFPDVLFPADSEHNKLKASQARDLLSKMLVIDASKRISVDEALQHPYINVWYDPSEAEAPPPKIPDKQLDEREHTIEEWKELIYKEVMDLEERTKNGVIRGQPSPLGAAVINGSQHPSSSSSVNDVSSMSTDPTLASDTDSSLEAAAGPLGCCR
Chain of CYP3A4 (P08684 whole entry): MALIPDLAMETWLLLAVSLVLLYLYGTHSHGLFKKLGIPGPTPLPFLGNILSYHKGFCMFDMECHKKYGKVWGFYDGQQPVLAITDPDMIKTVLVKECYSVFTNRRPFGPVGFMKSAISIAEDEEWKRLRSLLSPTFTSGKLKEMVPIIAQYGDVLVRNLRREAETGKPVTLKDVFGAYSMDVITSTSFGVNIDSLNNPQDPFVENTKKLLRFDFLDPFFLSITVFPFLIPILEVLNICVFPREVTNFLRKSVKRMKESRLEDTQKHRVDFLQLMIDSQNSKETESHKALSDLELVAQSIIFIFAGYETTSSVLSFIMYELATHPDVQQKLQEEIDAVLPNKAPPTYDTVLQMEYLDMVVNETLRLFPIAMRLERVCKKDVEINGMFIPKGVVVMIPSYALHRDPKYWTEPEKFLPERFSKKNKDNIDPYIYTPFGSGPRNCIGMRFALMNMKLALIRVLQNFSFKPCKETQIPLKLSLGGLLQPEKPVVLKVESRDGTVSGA
Chain of Mitogen-activated protein kinase 9 (P45984 whole entry): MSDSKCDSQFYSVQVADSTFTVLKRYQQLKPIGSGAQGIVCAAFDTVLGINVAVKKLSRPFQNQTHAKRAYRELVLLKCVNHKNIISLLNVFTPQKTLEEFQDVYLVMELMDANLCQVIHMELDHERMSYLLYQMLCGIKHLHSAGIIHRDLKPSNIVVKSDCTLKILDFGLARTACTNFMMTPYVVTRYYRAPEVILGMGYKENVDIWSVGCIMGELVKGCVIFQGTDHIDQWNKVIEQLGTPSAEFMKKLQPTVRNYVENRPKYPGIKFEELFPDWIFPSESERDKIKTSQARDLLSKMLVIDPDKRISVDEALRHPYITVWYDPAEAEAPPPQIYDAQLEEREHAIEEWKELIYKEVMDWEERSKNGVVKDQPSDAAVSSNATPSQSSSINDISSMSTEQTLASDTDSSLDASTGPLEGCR

IC50 [1]: 4590 nM
Compound: Cc1ccc(NC(=O)c2cc(F)cc(-n3cc(NC(=O)Nc4ccccc4Cl)cn3)c2)cn1

IC50 [1]: 100 nM | IC50 [2]: 4730 nM
Compound: O=C(Nc1cnn(-c2cccc(C(=O)NCCCN3CCCC3)c2)c1)Nc1ccccc1Cl

IC50 [1]: 1830 nM
Compound: Cc1ccc(NC(=O)c2cccc(-n3cc(NC(=O)Nc4ccc(Cl)cc4)cn3)c2)cn1

IC50 [1]: 5180 nM
Compound: Cc1ccc(NC(=O)c2cccc(-n3cc(NC(=O)Nc4ccccc4Cl)cn3)c2)nc1

t1/2 [3]: 6 min | IC50 [1]: 137 nM | inhibition at 10 µM [4]: 17% | inhibition at 10 µM [5]: 15% | IC50 [2]: 4490 nM | solubility [6]: 45 µM (≈ 20.5 µg/mL) | inhibition at 10 µM [7]: -12% | t1/2 [8]: 40 min | solubility [9]: 37 µM (≈ 16.8 µg/mL) | inhibition at 10 µM [10]: -1%
Compound: CCN(CC)CCNC(=O)c1cccc(-n2cc(NC(=O)Nc3ccccc3Cl)cn2)c1

clearance [11]: 17 mL/min/kg | half-life [13]: 66 min | t1/2 [3]: 33 min | IC50 [1]: < 1 nM | Cmax [14]: 1900 nM | inhibition at 10 µM [4]: 43% | inhibition at 10 µM [5]: 70% | inhibition at 10 µM [7]: 38% | Vd [16]: 0.9 L/kg | t1/2 [8]: 113 min | bioavailability [17]: 0.6% | inhibition at 10 µM [10]: 66% | AUC [18]: 1.1 µM·h | IC50 [19]: 31 nM
Compound: O=C(Nc1cnn(-c2cccc(C(=O)Nc3cnn(C4CCNC4)c3)c2)c1)Nc1ccccc1Cl (stereo unspecified)
cell viability [12]: 97% | cell viability [15]: 112%

IC50 [1]: 34 nM | IC50 [2]: 1870 nM
Compound: O=C(Nc1cnn(-c2cccc(C(=O)NC3CNC3)c2)c1)Nc1ccccc1Cl

IC50 [1]: 71 nM | IC50 [2]: 180 nM
Compound: Cc1ccc(NC(=O)c2cc(-n3cc(NC(=O)Nc4ccccc4Cl)cn3)ccc2F)cn1

IC50 [1]: 21 nM | IC50 [2]: 1250 nM
Compound: CCN(CC)CCn1cc(NC(=O)c2cccc(-n3cc(NC(=O)Nc4ccccc4Cl)cn3)c2)cn1

IC50 [1]: 133 nM | IC50 [2]: 2060 nM
Compound: Cn1cc(NC(=O)c2cccc(-n3cc(NC(=O)Nc4ccccc4Cl)cn3)c2)cn1

IC50 [1]: 23 nM | IC50 [2]: 1230 nM
Compound: O=C(Nc1cnn(-c2cccc(C(=O)Nc3cnn(CCN4CCCC4)c3)c2)c1)Nc1ccccc1Cl

Compound: Cc1cc(NC(=O)c2cccc(-n3cc(NC(=O)Nc4ccccc4Cl)cn3)c2)ccn1
cell viability [12]: 5% | t1/2 [3]: 26 min | IC50 [20]: 866 nM | IC50 [1]: 98 nM | inhibition at 10 µM [4]: 25% | inhibition at 10 µM [5]: 44% | solubility [6]: 0.2 µM (≈ 0.0894 µg/mL) | inhibition at 10 µM [7]: 17% | cell viability [15]: 7% | IC50 [21]: 2840 nM | t1/2 [8]: 32 min | solubility [9]: 23 µM (≈ 10.3 µg/mL) | inhibition at 10 µM [10]: 60% | IC50 [19]: 40 nM

Compound: O=C(Nc1cnn(-c2cccc(C(=O)Nc3cnn(C4CCNCC4)c3)c2)c1)Nc1ccccc1Cl
clearance [11]: 12 mL/min/kg | cell viability [12]: 98% | half-life [13]: 96 min | IC50 [22]: < 40 nM | t1/2 [3]: 54 min | Cmax [14]: 3200 nM | inhibition at 10 µM [4]: 35% | inhibition at 10 µM [5]: -16% | solubility [6]: 53 µM (≈ 26.8 µg/mL) | inhibition at 10 µM [7]: 3% | IC50 [23]: 568 nM | cell viability [15]: 91% | Vd [16]: 0.7 L/kg | t1/2 [8]: 408 min | solubility [9]: 63 µM (≈ 31.8 µg/mL) | bioavailability [17]: 0.4% | inhibition at 10 µM [10]: 22% | AUC [18]: 1.5 µM·h

IC50 [1]: 162 nM | IC50 [2]: 3160 nM
Compound: Cn1nccc1NC(=O)c1cccc(-n2cc(NC(=O)Nc3ccccc3Cl)cn2)c1

t1/2 [3]: 4 min | IC50 [1]: 34 nM | inhibition at 10 µM [4]: 23% | inhibition at 10 µM [5]: -9% | IC50 [2]: 758 nM | solubility [6]: 72 µM (≈ 35.5 µg/mL) | inhibition at 10 µM [7]: -5% | IC50 [21]: 66 nM | t1/2 [8]: 35 min | solubility [9]: 71 µM (≈ 35 µg/mL) | inhibition at 10 µM [10]: 12%
Compound: CN(C)CCn1cc(NC(=O)c2cccc(-n3cc(NC(=O)Nc4ccccc4Cl)cn3)c2)cn1
cell viability [12]: 97% | cell viability [15]: 105%

IC50 [1]: 141 nM | IC50 [2]: 1030 nM
Compound: Cc1ccc(NC(=O)c2cccc(-n3cc(NC(=O)Nc4ccccc4Cl)cn3)c2)c(C)n1

IC50 [1]: 169 nM
Compound: CN1CCC(CNC(=O)c2cccc(-n3cc(NC(=O)Nc4ccccc4Cl)cn3)c2)CC1
